Source: ChEMBL document CHEMBL1156654, “Antineoplastic agents. 552. Oxidation of combretastatin A-1: trapping the o-quinone intermediate considered the metabolic product of the corresponding phosphate prodrug” (2008)
Converted amounts (≈) assume the structure as drawn.

Columns and labels:
Type in all cases: functional
P388 = test: Growth inhibition of mouse P388 cells; details: read-out: ED50 (the source's name)
[1] = Antitumor activity against mouse MHEC5T cells xenografted in SCID mouse assessed as reduction in tumor blood flow at 100 mg/kg after 1 hrs; design: scale not given: the % may be the effect or the level left
[2] = Antitumor activity against mouse MHEC5T cells xenografted in SCID mouse assessed as reduction in tumor blood flow at 100 mg/kg after 24 hrs; design: scale not given: the % may be the effect or the level left
[3] = Antitumor activity against mouse MHEC5T cells xenografted in SCID mouse assessed as reduction in tumor blood flow at 100 mg/kg after 72 hrs; design: scale not given: the % may be the effect or the level left

| EC50 (P388) [µg/mL] | Compound | Activity [1] [%] | Activity [2] [%] | Activity [3] [%] |
| --- | --- | --- | --- | --- |
| 0.2 (≈ 0.432 µM) | COc1cc2nc3c(/C=C\c4cc(OC)c(OC)c(OC)c4)ccc(OC)c3nc2cc1OC | – | – | – |
| 0.2 (≈ 0.497 µM) | COc1cc(/C=C\c2ccc(OC)c3nc4ccccc4nc23)cc(OC)c1OC | – | – | – |
| – | COc1cc(/C=C\c2ccc(OC)c(OP(=O)([O-])[O-])c2OP(=O)([O-])[O-])cc(OC)c1OC.[Na+].[Na+].[Na+].[Na+] | 50 | 90 | 27 |
